These results are taken from patent publication US9981950B2, “Triazoles as NR2B receptor inhibitors” (Janssen Pharmaceuticals, Inc., priority 2014, dated 2018).

For test [1], the target named is T1, rat NR1/NR2B receptor (Rattus norvegicus (Rat), UniProt P35439+Q00960). Briefly: NR2B binding assay: inhibition of specific [3H]-Ifenprodil binding to the rat NR1/NR2B receptor. To be noted: rat brain membranes, Hill-plot 2-parameter-model. Here is the method:
Inhibition of Specific Binding to the Rat NR1/NR2B Receptor
(§1) Male Wistar rats (180 to 200 g) were killed by suffocation in a CO2 chamber for two minutes. Whole brains without cerebellum were removed and dissected on ice, placed into closed vials and stored at −70° C.
Membrane fractions were prepared and tested using standard techniques. At the time of the assay, 1 g of the brains was placed into 25 ml of 50 mM Tris/10 mM EDTA buffer, pH 7.1, (25 vol. per g of original tissue) and homogenized for 30 sec at 20000 rpm with an Ultraturrax T25 (Jahnke & Kunkel, IKA-Labortechnik, Staufen, Germany). The homogenate was centrifuged at 4° C. for 10 min at 48000 g (OPTIMA L-70, Beckman, Palo Alto, Calif. 94304, USA).
The supernatant was discarded and the pellet was homogenized on ice for 30 sec at 20000 rpm with an Ultraturrax and again centrifuged at 48000 g for 30 minutes at 4° C. The resulted pellet was resuspended in 25 ml of 50 mM Tris/10 mM EDTA buffer, homogenized for 30 sec with an Ultraturrax, aliquoted, frozen at −70° C. and stored until use.
After thawing on the day of the assay, a 5 ml membrane aliquot was centrifuged at 48000 g for 30 min at 4° C. The pellet was resuspended in 5 ml of 5 mM Tris/1 mM EDTA buffer, pH 7.4, homogenized for 30 sec at 20000 rpm with an Ultraturrax and centrifuged at 48000 g for 30 min at 4° C. This was repeated twice. The final pellet was homogenized in 5 ml of 5 mM Tris/l mM EDTA buffer at 4° C. with an Ultraturrax and used for the Ifenprodil-binding assay as described in the following.
Nonspecific binding was estimated in the presence of […] CP101.606. The samples were incubated for 60 min. at 4° C.
The incubation was terminated by filtration of the membrane preparations using Filtermat B (Pharmacia, Uppsala Sweden) and a Micro Cell Harvester (Skatron, Lier, Norway). The Filtermat B had been presoaked with 1% polyethylene imine and carefully washed with 50 mM Tris/HCl-buffer pH 7.7 after the filtration to separate free and bound radioactivity.
The optimal amount of membrane preparation in the assay had been determined and optimized for each membrane preparation separately before the test.
For pipetting of the incubation mixture we routinely used the robot Biomek2000 (Fa. Beckman).
For determination of IC50 values the Hill-plot, 2-parameter-model was used.

The target in test [2] is T1, rat NR1/NR2B receptor. Briefly: RRNR2BB: inhibition of specific binding to the rat NR1/NR2B receptor. To be noted: [3H]-Ifenprodil binding, rat brain membranes, Hill-plot 2-parameter-model. The method, then:
RRNR2BB—Inhibition of Specific Binding to the Rat NR1/NR2B Receptor
as §1
Membrane fractions were prepared and tested using standard techniques. At the time of the assay, 1 g of the brains were placed into 25 ml of 50 mM Tris/10 mM EDTA buffer, pH=7.1, (25 vol. per g of original tissue) and was homogenized for 30 sec at 20000 U/min with an Ultraturrax T25 (Jahnke & Kunkel, IKA-Labortechnik, Staufen, Germany). The homogenate was centrifuged at 4° C. for 10 min at 48000 g (OPTIMA L-70, Beckman, Palo Alto, Calif. 94304, USA). The supernatant was discarded and the pellet was homogenized on ice for 30 sec at 20000 U/min with an Ultraturrax and again centrifuged at 48000 g for 30 minutes at 4° C. The resultant pellet was resuspended in 25 ml of 50 mM Tris/10 mM EDTA buffer, homogenized for 30 sec with an Ultraturrax, aliquoted, frozen at −70° C. and stored until use
After thawing on the day of the assay, a 5 ml membrane aliquote was centrifuged at 48000 g for 30 min at 4° C. The pellet was resuspended in 5 ml of 5 mM Tris/1 mM EDTA buffer, pH=7.4, homogenized for 30 sec at 20000 U/min with an Ultraturrax and centrifuged at 48000 g for 30 min at 4° C. This step was repeated twice. The final pellet was homogenized in 5 ml of 5 mM Tris/mM EDTA buffer at 4° C. with an Ultraturrax and used for the Ifenprodil-binding assay.
Nonspecific binding was estimated in the presence of 10 M CP101.606. The samples were incubated for 60 min. at 4° C.
Binding was terminated by filtration of the incubated membrane preparations using Filtermat B (Pharmacia, Uppsala Sweden) and a Micro Cell Harvester (Skatron, Lier, Norway). The Filtermat B had been presoaked with 1% polyethylenimine and carefully washed with […] Tris/HCl-buffer pH=7.7 after the filtration to separate free and bound radioactivity.
For pipetting of the incubation mixture the robot Biomek2000 (Fa. Beckman) was used.
The IC50 values in the tables below were determined using the Hill-plot, 2-parameter-model.

The target in test [3] is hERG-receptor (Homo sapiens (Human), UniProt Q12809). In words: HERGBD: inhibition of specific 3H-Dofetilide binding to the hERG-receptor. To be noted: HEK cell membranes with human ERG, Hill-plot 2-parameter-model. Here is the method: Inhibition of Specific Binding to the hERG-Receptor (HERGBD)
Sequence of hERG-receptor (Q12809 whole entry): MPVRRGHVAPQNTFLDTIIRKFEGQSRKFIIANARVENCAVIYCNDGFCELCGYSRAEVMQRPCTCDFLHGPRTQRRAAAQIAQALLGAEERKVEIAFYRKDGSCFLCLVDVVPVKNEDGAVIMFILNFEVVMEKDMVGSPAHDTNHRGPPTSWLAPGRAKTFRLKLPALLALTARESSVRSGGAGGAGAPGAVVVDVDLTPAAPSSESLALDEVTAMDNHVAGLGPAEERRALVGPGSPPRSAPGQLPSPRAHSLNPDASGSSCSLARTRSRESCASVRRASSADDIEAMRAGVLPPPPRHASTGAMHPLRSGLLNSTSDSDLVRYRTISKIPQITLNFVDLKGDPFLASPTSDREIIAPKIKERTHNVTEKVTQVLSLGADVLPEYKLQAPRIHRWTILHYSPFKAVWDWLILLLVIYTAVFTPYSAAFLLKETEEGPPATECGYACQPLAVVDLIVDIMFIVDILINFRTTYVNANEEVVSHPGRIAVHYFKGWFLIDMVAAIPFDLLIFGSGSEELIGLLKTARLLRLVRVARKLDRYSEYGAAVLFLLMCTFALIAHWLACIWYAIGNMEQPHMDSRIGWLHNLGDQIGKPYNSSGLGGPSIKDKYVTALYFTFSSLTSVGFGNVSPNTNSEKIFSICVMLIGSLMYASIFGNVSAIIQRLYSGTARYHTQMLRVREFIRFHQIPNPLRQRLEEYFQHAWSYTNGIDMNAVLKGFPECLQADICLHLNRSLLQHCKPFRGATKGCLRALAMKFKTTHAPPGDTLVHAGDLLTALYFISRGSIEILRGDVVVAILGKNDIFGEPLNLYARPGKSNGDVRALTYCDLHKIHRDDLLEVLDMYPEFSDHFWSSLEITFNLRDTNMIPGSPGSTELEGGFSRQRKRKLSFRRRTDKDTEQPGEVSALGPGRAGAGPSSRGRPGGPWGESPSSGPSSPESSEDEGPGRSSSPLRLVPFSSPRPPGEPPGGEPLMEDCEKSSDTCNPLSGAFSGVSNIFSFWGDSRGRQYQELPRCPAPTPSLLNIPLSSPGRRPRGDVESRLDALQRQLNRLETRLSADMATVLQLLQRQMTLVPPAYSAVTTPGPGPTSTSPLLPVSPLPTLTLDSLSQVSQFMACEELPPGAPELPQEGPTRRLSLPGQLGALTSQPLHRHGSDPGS
A HEK cell line with stable transfected human ERG receptor was used for the assay. The cells were grown adherently and maintained in DULBECCOS' MEM medium with 10% FBS, 1% non-essential amino acids, 1% Penicillin/Streptomycin and 400 μg/ml G418 (Calbiochem).
For binding assays and membrane preparations the cell culture medium was removed, cells were washed with PBS. Crude membranes for radioligand binding experiments were prepared by scraping the cells off the dishes in ice cold 20 mM HEPES/0.1 mM KCl/pH 7.2. The cell suspension was homogenized on ice (Ultra turrax, 3×20 sec.) and the homogenate was spun for 10 min (1° C., 1000 g, OPTIMA, SW28, 2800 U/min). The supernatant was than centrifuged for 40 min at 100000 g (1° C., OPTIMA, SW28, 23000 U/min). The membrane pellet was resuspended in 20 mM HEPES/0.1 mM KCl/pH 7.2, frozen and stored at −80° C.
After thawing on the day of the assay, the membrane suspension was diluted further with 20 mM HEPES/0.1 mM KCl/pH 7.2.
The incubation mixture of 200 μl contained 1.5 nmol/l 3H-Dofetilide, optimized amount of membrane preparation, 20 mM HEPES/0.1 mM KCl/(pH 7.2) and inhibitor in 1% DMSO. Nonspecific binding was estimated in the presence of […] Dofetilide. The samples were incubated for 90 min. at RT.
Binding was terminated by filtration of the incubated membrane preparations using Filtermat B (Pharmacia, Uppsala Sweden) and a Micro Cell Harvester (Skatron, Lier, Norway). The Filtermat B had been presoaked with 1% polyethylenimine and carefully washed with 0.05 M Tris/HCl-buffer pH=7.7 after the filtration to separate free and bound radioactivity. The filters were counted in a scintillation counter (Betaplate 1205, Berthold, Wildbad, Germany) in order to determine the specific binding of [^3H]-Dofetilide.
The optimal amount of membrane preparation in the assay was determined and optimized for each membrane preparation separately in front of using the membranes in compound testing.
For pipetting of the incubation mixture we routinely use the robot Biomek2000 (Fa. Beckman).
In general terms: hERG is a cardiac potassium channel; its block is linked to QT prolongation.

One may read the pIC50 as the IC50 on a negative log10 scale, so that one unit is a factor of ten.

pIC50: −log10 of the molar value.

T1 sequence (Q00960 27-1482, other chains not shown): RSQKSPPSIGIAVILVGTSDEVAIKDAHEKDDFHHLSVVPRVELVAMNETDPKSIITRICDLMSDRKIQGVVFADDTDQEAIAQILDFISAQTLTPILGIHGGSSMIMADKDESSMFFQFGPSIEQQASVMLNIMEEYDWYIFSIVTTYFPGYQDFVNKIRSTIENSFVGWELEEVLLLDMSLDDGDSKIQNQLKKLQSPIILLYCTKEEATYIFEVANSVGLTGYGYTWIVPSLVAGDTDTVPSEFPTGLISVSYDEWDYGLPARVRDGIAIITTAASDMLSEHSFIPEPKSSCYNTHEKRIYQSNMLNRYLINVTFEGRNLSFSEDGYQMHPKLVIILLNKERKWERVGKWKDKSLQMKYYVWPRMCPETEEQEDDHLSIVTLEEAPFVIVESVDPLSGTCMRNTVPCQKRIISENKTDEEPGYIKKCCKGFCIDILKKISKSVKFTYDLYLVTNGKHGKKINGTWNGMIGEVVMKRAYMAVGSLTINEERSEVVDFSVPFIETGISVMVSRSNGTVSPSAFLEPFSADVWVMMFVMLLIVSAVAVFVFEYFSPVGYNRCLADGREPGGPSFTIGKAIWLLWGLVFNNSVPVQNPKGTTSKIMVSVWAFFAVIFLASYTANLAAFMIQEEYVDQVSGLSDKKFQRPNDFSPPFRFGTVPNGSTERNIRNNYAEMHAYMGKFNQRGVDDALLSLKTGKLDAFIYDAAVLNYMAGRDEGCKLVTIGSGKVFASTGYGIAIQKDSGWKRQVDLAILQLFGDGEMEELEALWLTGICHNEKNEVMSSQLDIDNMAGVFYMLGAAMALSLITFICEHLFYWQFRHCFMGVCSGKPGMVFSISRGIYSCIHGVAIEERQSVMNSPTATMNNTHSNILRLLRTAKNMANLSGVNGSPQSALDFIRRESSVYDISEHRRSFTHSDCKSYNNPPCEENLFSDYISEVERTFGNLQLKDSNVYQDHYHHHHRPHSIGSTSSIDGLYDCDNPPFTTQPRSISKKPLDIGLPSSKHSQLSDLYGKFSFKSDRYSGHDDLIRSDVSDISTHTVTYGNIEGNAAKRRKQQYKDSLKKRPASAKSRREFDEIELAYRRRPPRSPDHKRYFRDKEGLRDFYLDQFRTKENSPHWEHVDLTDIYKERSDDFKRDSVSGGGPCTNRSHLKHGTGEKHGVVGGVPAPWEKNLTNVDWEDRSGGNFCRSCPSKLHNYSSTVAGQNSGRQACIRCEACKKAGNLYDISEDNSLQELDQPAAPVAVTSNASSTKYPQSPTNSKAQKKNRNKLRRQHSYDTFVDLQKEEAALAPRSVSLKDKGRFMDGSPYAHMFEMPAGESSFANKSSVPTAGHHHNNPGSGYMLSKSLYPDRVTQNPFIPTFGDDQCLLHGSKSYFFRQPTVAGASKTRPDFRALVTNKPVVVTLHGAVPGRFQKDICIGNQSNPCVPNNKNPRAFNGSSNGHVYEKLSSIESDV

For the compound `CC(C)(C)c1nccn1Cc1cn(-c2ccc(Cl)c(Cl)c2)nn1` [Example 38, 4-(2-tert-Butyl-imidazol-1-ylmethyl)-1-(3,4-dichloro-phenyl)-1H-[1,2,3]triazole], the figures for the pIC50 in test [1], in test [2] and in test [3] were 6.28, 6.28 and 5.25, respectively.

With `Clc1ccc(-n2cc(Cn3ccnc3C3CCC3)nn2)cc1Cl` [Example 39, 4-(2-Cyclobutyl-imidazol-1-ylmethyl)-1-(3,4-dichloro-phenyl)-1H-[1,2,3]triazole], the pIC50 is 8.12 in test [1], 8.12 in test [2] and 5.76 in test [3].

Turning to `OCCc1nccn1Cc1cn(-c2ccc(Cl)c(Cl)c2)nn1` [Example 40, 4-[2-(2-Hydroxyethyl)-imidazol-1-ylmethyl]-1-(3,4-dichloro-phenyl)-1H-[1,2,3]triazole], the pIC50 is 7.76 in test [1], 7.76 in test [2] and 4.83 in test [3].

Regarding `FCCc1nccn1Cc1cn(-c2ccc(Cl)c(Cl)c2)nn1` [Example 41, 1-(3,4-Dichloro-phenyl)-4-[2-(2-fluoro-ethyl)-imidazol-1-ylmethyl]-1H-[1,2,3]triazole], the results for the pIC50 in test [1], in test [2] and in test [3] were 7.58, 7.58 and 4.86, respectively.

With `Fc1ccc(-n2cc(Cn3ccnc3C3CC3)nn2)cc1Cl` [Example 44], the pIC50 in test [1] was 7.55; in test [2], 7.55; in test [3], 5.45.

Take `CCCCc1nccn1Cc1cn(-c2ccc(F)c(Cl)c2)nn1` [Example 45, 4-(2-Butyl-imidazol-1-ylmethyl)-1-(3-chloro-4-fluoro-phenyl)-1H-[1,2,3]triazole]: the pIC50 in test [1] is 8.11; in test [2] it was 8.11; in test [3] it was 6.27.

For the compound `Cc1nccn1Cc1cn(-c2ccc(Cl)cc2Cl)nn1` [Example 49, 1-(2,4-Dichloro-phenyl)-4-(2-methyl-imidazol-1-ylmethyl)-1H-[1,2,3]triazole], the results for the pIC50 in test [1], in test [2] and in test [3] were 6.11, 6.11 and 5.34, respectively.

As for `Cc1nccn1Cc1cn(-c2ccc(Cl)c(F)c2)nn1` [Example 50, 1-(4-Chloro-3-fluoro-phenyl)-4-(2-methyl-imidazol-1-ylmethyl)-1H-[1,2,3]triazole], the figures for the pIC50 in test [1], in test [2] and in test [3] were 7.67, 7.67 and 5.47, respectively.

For `Cc1nccn1Cc1cn(-c2ccc(F)c(Cl)c2)nn1` [Example 51, 1-(3-Chloro-4-fluoro-phenyl)-4-(2-methyl-imidazol-1-ylmethyl)-1H-[1,2,3]triazole], the pIC50 in test [1] is 8.15; in test [2], 8.15; in test [3], 5.30.

`COc1cc(F)ccc1-n1cc(Cn2ccnc2C)nn1` [Example 52, 1-(4-Fluoro-2-methoxy-phenyl)-4-(2-methyl-imidazol-1-ylmethyl)-1H-[1,2,3]triazole]: the pIC50 in test [1] is 5.93; in test [2] it was 5.93; in test [3], 4.38.

For the compound `Cc1ccc(-n2cc(Cn3ccnc3C)nn2)cc1F` [Example 53, 1-(3-Fluoro-4-methyl-phenyl)-4-(2-methyl-imidazol-1-ylmethyl)-1H-[1,2,3]triazole], the pIC50 in test [1] was 7.58; in test [2], 7.58; in test [3], 5.19.

On to `Cc1cc(-n2cc(Cn3ccnc3C)nn2)ccc1F` [Example 54, 1-(4-Fluoro-3-methyl-phenyl)-4-(2-methyl-imidazol-1-ylmethyl)-1H-[1,2,3]triazole], for which the pIC50 in test [1] was 8.27; in test [2] it was 8.27; in test [3], 5.21.

As for `Cc1cc(-n2cc(Cn3ccnc3C)nn2)ccc1Cl` [Example 55, 1-(4-Chloro-3-methyl-phenyl)-4-(2-methyl-imidazol-1-ylmethyl)-1H-[1,2,3]triazole], the pIC50 in test [1] is 8.79; in test [2], 8.79; in test [3], 5.33.

For the compound `Cc1nccn1Cc1cn(-c2ccc(Cl)c(C(F)(F)F)c2)nn1` [Example 56, 1-(4-Chloro-3-trifluoromethyl-phenyl)-4-(2-methyl-imidazol-1-ylmethyl)-1H-[1,2,3]triazole], the values for the pIC50 in test [1], in test [2] and in test [3] were 7.92, 7.92 and 5.19, respectively.

Take `Cc1nccn1Cc1cn(-c2cccc(OC(F)(F)F)c2)nn1` [Example 57, 4-(2-Methyl-imidazol-1-ylmethyl)-1-(3-trifluoromethoxy-phenyl)-1H-[1,2,3]triazole]: the pIC50 was 8.14 in test [1], 8.14 in test [2] and 5.07 in test [3].

Consider `Cc1nccn1Cc1cn(-c2cccc(C(F)(F)F)c2)nn1` [Example 58, 4-(2-Methyl-imidazol-1-ylmethyl)-1-(3-trifluoromethyl-phenyl)-1H-[1,2,3]triazole], for which the pIC50 in test [1] was 7.76; in test [2] it was 7.76; in test [3], 4.82.

In the case of `Cc1nccn1Cc1cn(-c2ccc(C(F)(F)F)cc2)nn1` [Example 59, 4-(2-Methyl-imidazol-1-ylmethyl)-1-(4-trifluoromethyl-phenyl)-1H-[1,2,3]triazole], the pIC50 is 7.34 in test [1], 7.34 in test [2] and 5.20 in test [3].
